The record followed here is patent US20250326720A1, “CAREBASTINE SALT AND USE OF SAME” (priority 2022, published 2025).

Structures are written as SMILES. ≈ marks a conversion by molar mass, not a printed value. Structures can show the parent of a compound that is named as a salt. Where two headings read alike, the source gives them in different places. Marks after values point to notes of the source that are not given here. A value given as a limit tells only on which side of the number the result lay.

A short description of data set [1]: Stability study (influencing factors, HPLC purity). In kind it is physicochemical. The settings on record: for stability under light / Purity Day 12 under light: 5000Lux; for Purity Day 12 under high temperature / Purity Day 12 under light / Purity Day 0 / Purity Day 12 under high humidity: HPLC; for Purity Day 12 under high temperature: 60° C.; for Purity Day 12 under high humidity: RH80%. The source says:
Carebastine (Comparative Example 2, Comparative Example 2′), carebastine potassium salt (Example 1), and carebastine p-toluenesulfonate (Example 3, Example 5).
Three samples of each of carebastine (Comparative Example 2), refined carebastine (Comparative Example 2′), carebastine potassium salt (Example 1), carebastine p-toluenesulfonate (Example 3), and carebastine p-toluenesulfonate (Example 5) were weighed and placed in weighing flasks. The samples of each group were placed under high temperature (60° C.), high humidity (RH80%), and light (5000Lux) conditions, and the samples were taken for testing after 12 days. Note: The refined carebastine of Comparative Example 2′ can be prepared by column chromatography of Comparative Example 2 using common technical means in the related art.
Detection method: An appropriate amount of each of the samples was weighed accurately, and is dissolved in acetonitrile and quantitatively diluted to a solution containing about 0.08 mg per 1 ml. The detection was carried out using high performance liquid chromatography, octadecylsilane bonded silica gel as a filler, and water-acetonitrile (1:1) as a mobile phase, under a detection wavelength of 256 nm, column temperature of 35° C., and injection volume of 10 μL. Each sample solution was injected into the liquid chromatograph and the chromatogram was recorded.

A further data set in a line: Hygroscopicity study. The class given is physicochemical. The settings on record: 25° C.±1° C., relative humidity 80%, 24 hours. Here is the method: The preparation of carebastine hydrochloride refers to the description of patent U.S. Pat. No. 6,340,761, and the purity is 99% or more. […] (2) An appropriate amount of the sample was spread flat in the weighing bottle. […] (3) The weighing bottle was opened and placed with the lid under the above constant temperature and humidity conditions for 24 hours. (4) The lid was put on the weighing bottle and the weight was accurately weighed (m3).

Data set [2] is described as follows: Solubility test in different media. The class given is physicochemical. The protocol:
Carebastine (Comparative Example 2) and carebastine p-toluenesulfonate (Example 3).
Hydrochloric acid solution with a pH of 1.2:7.65 ml of hydrochloric acid was diluted to 1000 ml with water, and shaken evenly to obtain the solution.
Phosphate buffer with a pH of 4.5:3.40278 g of KH2PO4 was weighed, dissolved in water and diluted to 500 ml, and shaken evenly to obtain the solution.
Phosphate buffer with a pH of 6.8:3.40353 g of KH2PO4 and 0.4428 g of sodium hydroxide were weighed, dissolved in water and diluted to 500 ml, and shaken evenly to obtain the solution.
Appropriate amounts of the compounds of Example 3 and Comparative Example 2 were respectively placed in conical flasks containing 50 ml of water, 50 ml of a hydrochloric acid solution with a pH of 1.2, 50 ml of a phosphate buffer with a pH of 4.5, and 50 ml of a phosphate buffer with a pH of 6.8, respectively, so that the solutions were supersaturated and insoluble matter was clearly visible.
The conical flasks were placed in a thermostatic water bath at 37° C. and an oscillation rate of 120 r/min. Samples were taken at 24 h, 48 h, and 72 h, and detected by liquid chromatography.

In data set [3] the test system is histamine-induced shock in guinea pigs. Kind of data set: Histamine-induced shock test in guinea pigs. The class given is in vivo. The conditions noted are these: gavage, equimolar to 1.00 mg/kg ebastine, histamine phosphate i.v. one hour after administration, n = 10; for Time of accelerated respiration: x ± s. The protocol:
One hour after administration, 0.125 wt. % histamine phosphate saline solution was injected intravenously into lateral sides of hind paws of the guinea pigs at 2 ml/kg. After the injection was completed within 10 s, a stopwatch was used immediately to observe the latency period for the guinea pigs to develop accelerated respiration and collapse with convulsions.

Another data set relates to KM mice. The settings on record: single intragastric; for Mortality rate of mice / Number of surviving mice: 14 days observation; for Number of surviving mice: 10 mice per group; for abnormalities during observation period and in gross anatomical observation: low dose, mice, 14 days. The protocol: All drugs were administered by intragastric administration, and the blank control group was administered with an equal volume of 0.5% CMC-Na solution. All animals were fasted for 12 hours before administration, but were allowed to drink water freely.
After administration, the mice were kept and observed for 14 days, and the toxic reactions (such as death) of the mice were observed and recorded every day. After the observation period, all surviving animals were dissected to observe whether there were obvious lesions in each organ.

[4] abbreviates: high dose (equimolar to 5 g/kg ebastine).
Setting [5] is: low dose (equimolar to 2.5 g/kg ebastine).

Consider `CC(C)(C(=O)O)c1ccc(C(=O)CCCN2CCC(OC(c3ccccc3)c3ccccc3)CC2)cc1` [Comparative Example 2, 2-(4-(4-(4-(diphenylmethoxy)piperidin-1-yl)butyryl)phenyl)-2-methylpropanoic acid], for which the stability under light result in data set [1] (12 days) is on record as “extremely unstable”. In addition, the “Purity Day 12 under high temperature” value in data set [1] (12 days) came to 97.22%. For the same molecule, the “Purity Day 12 under light” value in data set [1] (12 days) came to 87.28%. The “Purity Day 0” value in data set [1] was determined as 97.78%. Moreover, the “Purity Day 12 under high humidity” value in data set [1] (12 days) is recorded as 97.41%. The “Characteristic description (hygroscopicity)” value (“Characteristic description” for short) in “Hygroscopicity study” was “Hygroscopic”. In “Hygroscopicity study”, the “Weight gain Percentage” value stood at 6%. For the same molecule, the solubility in data set [2] (Hydrochloric acid solution with a pH of 1.2, 37° C., 24 h) stood at 460 µg/mL (≈ 921 µM); in data set [2] (Hydrochloric acid solution with a pH of 1.2, 37° C., 48 h), 540 µg/mL (≈ 1080 µM); in data set [2] (Hydrochloric acid solution with a pH of 1.2, 37° C., 72 h), 390 µg/mL (≈ 781 µM); in data set [2] (Phosphate buffer with a pH of 4.5, 37° C., 24 h) it was 200 µg/mL (≈ 400 µM); in data set [2] (Phosphate buffer with a pH of 4.5, 37° C., 48 h), 190 µg/mL (≈ 380 µM); in data set [2] (Phosphate buffer with a pH of 4.5, 37° C., 72 h) it was 200 µg/mL (≈ 400 µM). Further, the solubility stood at 30 µg/mL (≈ 60 µM) in data set [2] (Phosphate buffer with a pH of 6.8, 37° C., 24 h); 30 µg/mL (≈ 60 µM) in data set [2] (Phosphate buffer with a pH of 6.8, 37° C., 48 h); 30 µg/mL (≈ 60 µM) in data set [2] (Phosphate buffer with a pH of 6.8, 37° C., 72 h); 720 µg/mL (≈ 1440 µM) in data set [2] (Water, 37° C., 24 h); 520 µg/mL (≈ 1040 µM) in data set [2] (Water, 37° C., 48 h); 520 µg/mL (≈ 1040 µM) in data set [2] (Water, 37° C., 72 h).
For `CC(C)(C(=O)O)c1ccc(C(=O)CCCN2CCC(OC(c3ccccc3)c3ccccc3)CC2)cc1` [Comparative Example 2′, carebastine], in data set [1] (12 days), the “Purity Day 12 under high temperature” value stood at 99.45%, the “Purity Day 12 under light” value was 88.11% and the “Purity Day 12 under high humidity” value is 99.25%. Besides, the “Purity Day 0” value in data set [1] was determined as 99.65%.
Take `CC(C)(C(=O)O)c1ccc(C(=O)CCCN2CCC(OC(c3ccccc3)c3ccccc3)CC2)cc1` [Comparative Example 3, carebastine hydrochloride]: in the data set “Hygroscopicity study” (hydrochloride), the “Characteristic description” value is listed as “Extremely hygroscopic” and the “Weight gain Percentage” value worked out at 15.9%. In data set [2], this molecule showed a solubility of 80 µg/mL. The same molecule displayed a solubility in data set [2] (pH 6.8) of 10 µg/mL.
In the case of `CC(C)(C(=O)[O-])c1ccc(C(=O)CCCN2CCC(OC(c3ccccc3)c3ccccc3)CC2)cc1.[K+]` [Example 1, potassium 2-(4-(4-(4-(diphenylmethoxy)piperidin-1-yl)butyryl)phenyl)-2-methylpropanoate], in data set [3], the Mortality rate is given as 0/10; the “Time of convulsion and collapse” value was >600*^▴ s; the “Time of accelerated respiration” value worked out at 294 ± 24.42 s. For the same molecule, in the data set on KM mice (setting [4]), the “Mortality rate of mice” value amounted to 20% and the “Number of surviving mice” value is given as 8. In addition, in the data set with KM mice (setting [5]), the “Mortality rate of mice” value was found to be 0 and the “Number of surviving mice” value is reported as 10. The “abnormalities during observation period and in gross anatomical observation” value in the data set with KM mice is “no obvious abnormalities were observed”. Also, in data set [1] (12 days), the stability under light result is on record as “slightly reduced”, the “Purity Day 12 under high temperature” value was determined as 98.23%, the “Purity Day 12 under light” value is 97.48% and the “Purity Day 12 under high humidity” value is 98.38%. The “Purity Day 0” value in data set [1] is 98.42%. Besides, in the data set “Hygroscopicity study”, the “Characteristic description” value is “No or almost no hygroscopicity” and the “Weight gain Percentage” value was −0.2%.
On to `CC(C)(C(=O)[O-])c1ccc(C(=O)CCCN2CCC(OC(c3ccccc3)c3ccccc3)CC2)cc1.[Na+]` [Example 2, sodium 2-(4-(4-(4-(diphenylmethoxy)piperidin-1-yl)butyryl)phenyl)-2-methylpropanoate], for which, in data set [3], the Mortality rate was 0/10; the “Time of convulsion and collapse” value is given as >600*^▴ s; the “Time of accelerated respiration” value amounted to 275 ± 31.41 s.
On to `CC(C)(C(=O)O)c1ccc(C(=O)CCCN2CCC(OC(c3ccccc3)c3ccccc3)CC2)cc1.Cc1ccc(S(=O)(=O)O)cc1` [Example 3, 2-(4-(4-(4-(diphenylmethoxy)piperidin-1-yl)butyryl)phenyl)-2-methylpropanoic acid p-toluenesulfonate], for which, in data set [3], the Mortality rate is listed as 0/10; the “Time of convulsion and collapse” value is recorded as >600*^▴ s; the “Time of accelerated respiration” value came out at 351 ± 38.16 s. Also, in the data set with KM mice (setting [4]), the “Mortality rate of mice” value turned out to be 10% and the “Number of surviving mice” value was 9. Moreover, in the data set on KM mice (setting [5]), the “Mortality rate of mice” value turned out to be 0 and the “Number of surviving mice” value is 10. Further, in the data set with KM mice, the “abnormalities during observation period and in gross anatomical observation” value was “no obvious abnormalities were observed”. Further, the “stability under high temperature, high humidity and light conditions” value in data set [1] (12 days) is given as “stable”. For the same molecule, in data set [1] (12 days, p-toluenesulfonate), the “Purity Day 12 under high temperature” value came out at 99.94%, the “Purity Day 12 under light” value came out at 99.91% and the “Purity Day 12 under high humidity” value came to 99.98%. In addition, the “Purity Day 0” value in data set [1] (p-toluenesulfonate) is recorded as 99.99%. Moreover, in the data set “Hygroscopicity study”, the “Characteristic description” value is reported as “Slightly hygroscopic” and the “Weight gain Percentage” value stood at 0.3%.
Take `CC(C)(C(=O)O)c1ccc(C(=O)CCCN2CCC(OC(c3ccccc3)c3ccccc3)CC2)cc1.CS(=O)(=O)O` [Example 4, 2-(4-(4-(4-(diphenylmethoxy)piperidin-1-yl)butyryl)phenyl)-2-methylpropanoic acid methanesulfonate]: in data set [3], the Mortality rate is 0/10; the “Time of convulsion and collapse” value is listed as >600*^▴ s; the “Time of accelerated respiration” value stood at 256 ± 24.05 s.
Turning to `CC(C)(C(=O)O)c1ccc(C(=O)CCCN2CCC(OC(c3ccccc3)c3ccccc3)CC2)cc1.Cc1ccc(S(=O)(=O)O)cc1` [Example 5, carebastine p-toluenesulfonate], in data set [1] (12 days), the “Purity Day 12 under high temperature” value came to 97.90%, the “Purity Day 12 under light” value is recorded as 97.80% and the “Purity Day 12 under high humidity” value came out at 97.89%. Further, the “Purity Day 0” value in data set [1] stood at 97.90%.
